Measured values published in patent US9873709B2 (priority 2013, dated 2018).
pIC50: −log10 of the molar value.

System: JAK1-dependent STAT6 phosphorylation downstream of IL-13 stimulation in TF-1 human erythroleukemia cells
Assay: cells
Conditions: TF-1, read-out: IL-13-pSTAT6 IC50

SMILES | pIC50
O=C(CCC(F)(F)F)N1CC=C(c2cccn3nc(Nc4ccc(C(=O)N5CC6CNCC6C5)cc4)nc23)CC1 (stereo not drawn) [Example 2-313, 1-[4-[2-[4-(2,3,3a,4,6,6a-hexahydro-1H-pyrrolo[3,4-c]pyrrole-5-carbonyl)anilino]-[1,2,4]triazolo[1,5-a]pyridin-8-yl]-3,6-dihydro-2H-pyridin-1-yl]-4,4,4-trifluoro-butan-1-one] | 6.74
CCOC(=O)N1CC=C(c2cccn3nc(Nc4ccc(C(=O)N(C)CCN)cc4)nc23)CC1 [Example 2-374, ethyl 4-[2-[4-[2-aminoethyl(methyl)carbamoyl]anilino]-[1,2,4]triazolo[1,5-a]pyridin-8-yl]-3,6-dihydro-2H-pyridine-1-carboxylate] | 7.20
CN(CCc1cccnc1)C(=O)c1ccc(Nc2nc3c(C4=CCN(C(=O)CCC(F)(F)F)CC4)cccn3n2)cc1 [Example 2-212, N-methyl-N-[2-(3-pyridyl)ethyl]-4-[[8-[1-(4,4,4-trifluorobutanoyl)-3,6-dihydro-2H-pyridin-4-yl]-[1,2,4]triazolo[1,5-a]pyridin-2-yl]amino]benzamide] | 8.10
CCOC(=O)N1CC=C(c2cccn3nc(Nc4ccc(C(=O)NCC5CCNCC5)cc4)nc23)CC1 [Example 2-425, ethyl 4-[2-[4-(4-piperidylmethylcarbamoyl)anilino]-[1,2,4]triazolo[1,5-a]pyridin-8-yl]-3,6-dihydro-2H-pyridine-1-carboxylate] | 6.65
CCOC(=O)N1CC=C(c2cccn3nc(Nc4ccc(C(=O)N5CCCC5c5ccncc5)cc4)nc23)CC1 (stereo not drawn) [Example 2-15, ethyl 4-[2-[4-[2-(4-pyridyl)pyrrolidine-1-carbonyl]anilino]-[1,2,4]triazolo[1,5-a]pyridin-8-yl]-3,6-dihydro-2H-pyridine-1-carboxylate] | 7.77
CCOC(=O)N1CC=C(c2cccn3nc(Nc4ccc(C(=O)NCc5cc(C)ccn5)cc4)nc23)CC1 [Example 2-124, ethyl 4-[2-[4-[(4-methyl-2-pyridyl)methylcarbamoyl]anilino]-[1,2,4]triazolo[1,5-a]pyridin-8-yl]-3,6-dihydro-2H-pyridine-1-carboxylate] | 7.41
CCOC(=O)N1CC=C(c2cccn3nc(Nc4ccc(C(=O)N5CC(C(=O)N6CCN(C)CC6)C5)cc4)nc23)CC1 [Example 2-421, ethyl 4-[2-[4-[3-(4-methylpiperazine-1-carbonyl)azetidine-1-carbonyl]anilino]-[1,2,4]triazolo[1,5-a]pyridin-8-yl]-3,6-dihydro-2H-pyridine-1-carboxylate] | 7.62
CC1CC(C)CN(CCNC(=O)c2ccc(Nc3nc4c(C5=CCN(C(=O)CCC(F)(F)F)CC5)cccn4n3)cc2)C1 (stereo not drawn) [Example 2-269, N-[2-(3,5-dimethyl-1-piperidyl)ethyl]-4-[[8-[1-(4,4,4-trifluorobutanoyl)-3,6-dihydro-2H-pyridin-4-yl]-[1,2,4]triazolo[1,5-a]pyridin-2-yl]amino]benzamide] | 8.29
O=C(NC1CCNC1)c1ccc(Nc2nc3c(C4=CCN(C(=O)CCC(F)(F)F)CC4)cccn3n2)cc1 (stereo not drawn) [Example 2-255, N-pyrrolidin-3-yl-4-[[8-[1-(4,4,4-trifluorobutanoyl)-3,6-dihydro-2H-pyridin-4-yl][1,2,4]triazolo[1,5 a]pyridin-2-yl]amino]benzamide] | 6.53
CCOC(=O)N1CC=C(c2cccn3nc(Nc4ccc(C(=O)N5CCCN(c6ccncc6)CC5)cc4)nc23)CC1 [Example 2-429, ethyl 4-[2-[4-[4-(4-pyridyl)-1,4-diazepane-1-carbonyl]anilino]-[1,2,4]triazolo[1,5-a]pyridin-8-yl]-3,6-dihydro-2H-pyridine-1-carboxylate] | 7.56
O=C(CCC(F)(F)F)N1CC=C(c2cccn3nc(Nc4ccc(C(=O)N5CCO[C@@H]6CNC[C@@H]65)cc4)nc23)CC1 [Example 2-139, 1-[4-[2-[4-[(4aS,7aR)-3,4a,5,6,7,7a-hexahydro-2H-pyrrolo[3,4-b][1,4]oxazine-4-carbonyl]anilino]-[1,2,4]triazolo[1,5-a]pyridin-8-yl]-3,6-dihydro-2H-pyridin-1-yl]-4,4,4-trifluoro-butane-1-one] | 6.45
O=C(CCC(F)(F)F)N1CC=C(c2cccn3nc(Nc4ccc(C(=O)N5CC6(CCNCC6)C5)cc4)nc23)CC1 [Example 2-81, 1-[4-[2-[4-(2,7-diazaspiro[3.5]nonane-2-carbonyl)anilino]-[1,2,4]triazolo[1,5-a]pyridin-8-yl]-3,6-dihydro-2H-pyridin-1-yl]-4,4,4-trifluoro-butan-1-one] | 7.22
O=C(CCC(F)(F)F)N1CC=C(c2cccn3nc(Nc4ccc(C(=O)N5CCCNCC5)cc4)nc23)CC1 [Example 2-195, 1-[4-[2-[4-(1,4-diazepane-1-carbonyl)anilino]-[1,2,4]triazolo[1,5-a]pyridin-8-yl]-3,6-dihydro-2H-pyridin-1-yl]-4,4,4-trifluoro-butan-1-one] | 6.79
CCOC(=O)N1CC=C(c2cccn3nc(Nc4ccc(C(=O)N5CCC6(CCNC6)C5)cc4)nc23)CC1 (stereo not drawn) [Example 2-78, ethyl 4-[2-[4-(2,7-diazaspiro[4.4]nonane-2-carbonyl)anilino]-[1,2,4]triazolo[1,5-a]pyridin-8-yl]-3,6-dihydro-2H-pyridine-1-carboxylate] | 6.44
CC(=O)N1CC2(C1)CN(C(=O)c1ccc(Nc3nc4c(N5CCC(O)(c6ccc(Cl)cc6)CC5)cccn4n3)cc1)C2 [Example 1-53, 1-[2-[4-[[8-[4-(4-chlorophenyl)-4-hydroxy-1-piperidyl]-[1,2,4]triazolo[1,5-a]pyridin-2-yl]amino]benzoyl]-2,6-diazaspiro[3.3]heptan-6-yl]ethanone] | 7.56
Cc1cccc(C2CCN(C(=O)c3ccc(Nc4nc5c(C6=CCN(C(=O)CCC(F)(F)F)CC6)cccn5n4)cc3)CC2)n1 [Example 2-468, 4,4,4-trifluoro-1-[4-[2-[4-[4-(6-methyl-2-pyridyl)piperidine-1-carbonyl]anilino]-[1,2,4]triazolo[1,5-a]pyridin-8-yl]-3,6-dihydro-2H-pyridin-1-yl]butan-1-one] | 7.89
CC(C)CCC(=O)N1CC=C(c2cccn3nc(Nc4ccc(C(=O)N(C)C5CCN(C)CC5)cc4)nc23)CC1 [Example 2-412, N-methyl-4-[[8-[1-(4-methylpentanoyl)-3,6-dihydro-2H-pyridin-4-yl]-[1,2,4]triazolo[1,5-a]pyridin-2-yl]amino]-N-(1-methyl-4-piperidyl)benzamide] | 7.58
CN1CCC(N(C)C(=O)c2ccc(Nc3nc4c(C5=CCN(C(=O)c6ccccc6)CC5)cccn4n3)cc2)CC1 [Example 2-408, 4-[[8-(1-benzoyl-3,6-dihydro-2H-pyridin-4-yl)-[1,2,4]triazolo[1,5-a]pyridin-2-yl]amino]-N-methyl-N-(1-methyl-4-piperidyl)benzamide] | 6.73
O=C(NCC1CCNCC1)c1ccc(Nc2nc3c(C4=CCN(C(=O)CCC(F)(F)F)CC4)cccn3n2)cc1 [Example 2-84, N-(4-piperidylmethyl)-4-[[8-[1-(4,4,4-trifluorobutanoyl)-3,6-dihydro-2H-pyridin-4-yl]-[1,2,4]triazolo[1,5-a]pyridin-2-yl]amino]benzamide] | 7.15
O=C(c1ccc(Nc2nc3c(N4CCC(O)(c5ccc(Cl)cc5)CC4)cccn3n2)cc1)N1CCOC2(CCNCC2)C1 [Example 1-231, [4-[[8-[4-(4-chlorophenyl)-4-hydroxy-1-piperidyl]-[1,2,4]triazolo[1,5-a]pyridin-2-yl]amino]phenyl]-(1-oxa-4,9-diazaspiro[5.5]undecan-4-yl)methanone] | 6.04
CN(C)c1ccc(C2CCCN(C(=O)c3ccc(Nc4nc5c(C6=CCN(C(=O)CCC(F)(F)F)CC6)cccn5n4)cc3)C2)nc1 (stereo not drawn) [Example 2-51, 1-[4-[2-[4-[3-[5-(dimethylamino)-2-pyridyl]piperidine-1-carbonyl]anilino]-[1,2,4]triazolo[1,5-a]pyridin-8-yl]-3,6-dihydro-2H-pyridin-1-yl]-4,4,4-trifluoro-butan-1-one] | 7.15
CN(C)C1CCN(C(=O)c2ccc(Nc3nc4c(C5=CCN(C(=O)CCC(F)(F)F)CC5)cccn4n3)cc2)C1 (stereo not drawn) [Example 2-464, 1-[4-[2-[4-[3-(dimethylamino)pyrrolidine-1-carbonyl]anilino]-[1,2,4]triazolo[1,5-a]pyridin-8-yl]-3,6-dihydro-2H-pyridin-1-yl]-4,4,4-trifluoro-butan-1-one] | 8.04
CC1CNCCN1C(=O)c1ccc(Nc2nc3c(C4=CCN(C(=O)CCC(F)(F)F)CC4)cccn3n2)cc1 (stereo not drawn) [Example 2-319, 4,4,4-trifluoro-1-[4-[2-[4-(2-methylpiperazine-1-carbonyl)anilino]-[1,2,4]triazolo[1,5-a]pyridin-8-yl]-3,6-dihydro-2H-pyridin-1-yl]butan-1-one] | 7.61
O=C(NCC1CNCCO1)c1ccc(Nc2nc3c(N4CCC(O)(c5ccc(Cl)cc5)CC4)cccn3n2)cc1 (stereo not drawn) [Example 1-188, 4-[[8-[4-(4-chlorophenyl)-4-hydroxy-1-piperidyl]-[1,2,4]triazolo[1,5-a]pyridin-2-yl]amino]-N-(morpholin-2-ylmethyl)benzamide] | 7.46
O=C(N[C@H]1CCCNC1)c1ccc(Nc2nc3c(N4CCC(O)(c5ccc(Cl)cc5)CC4)cccn3n2)cc1 [Example 1-198, 4-[[8-[4-(4-chlorophenyl)-4-hydroxy-1-piperidyl]-[1,2,4]triazolo[1,5-a]pyridin-2-yl]amino]-N-[(3S)-3-piperidyl]benzamide] | 7.16
O=C(NC1CC2(CCNCC2)C1)c1ccc(Nc2nc3c(C4=CCN(C(=O)CCC(F)(F)F)CC4)cccn3n2)cc1 [Example 2-322, N-(7-azaspiro[3.5]nonan-2-yl)-4-[[8-[1-(4,4,4-trifluorobutanoyl)-3,6-dihydro-2H-pyridin-4-yl]-[1,2,4]triazolo[1,5-a]pyridin-2-yl]amino]benzamide] | 6.98
O=C(c1ccc(Nc2nc3c(N4CCC(O)(c5ccc(Cl)cc5)CC4)cccn3n2)cc1)N1CCCCC1Cc1ccccn1 (stereo not drawn) [Example 1-121, [4-[[8-[4-(4-chlorophenyl)-4-hydroxy-1-piperidyl]-[1,2,4]triazolo[1,5-a]pyridin-2-yl]amino]phenyl]-[2-(2-pyridylmethyl)-1-piperidyl]methanone] | 6.88
